Test results reported in EP4786487A1, “PEPTIDE” (Peptidream Inc, priority 2023, dated 2025).
pIC50: −log10 of the molar value. Like-named read-outs stand apart in the source and are kept apart here. Starred links: 1 amine or outer side, 2 acyl side, 3 side chain; linkers in the order of their positions; H or OH if unused. Positions of bridges follow the written chain, without caps; N, C: chain ends. Non-standard residues stand in square brackets, D forms with d. Residues, ends and D or L forms follow the SMILES beside them. *: point of attachment. Trp(6-OH,1-(4-HO2C-Ph)) = N[C@@H](Cc1cn(-c2ccc(C(=O)O)cc2)c2cc(O)ccc12)C(=O)O; Phe(3-OCH2COOH) = N[C@@H](Cc1cccc(OCC(=O)O)c1)C(=O)O; N(CH2CH2CO)Gly = O=C(CN(CCC(=O)[*:3])[*:1])[*:2]; NMePhe(4-CH2NH2) = CN[C@@H](Cc1ccc(CN)cc1)C(=O)O; Piperidine(4-CH2CH2CONH2) = NC(=O)CCC1CCN(*)CC1; Phe(4-COOH) = N[C@@H](Cc1ccc(C(=O)O)cc1)C(=O)O; Bip = N[C@@H](Cc1ccc(-c2ccccc2)cc1)C(=O)O; Gly(N(CH2)3COOH) = O=C(O)CCCNCC(=O)O; NMeY = CN[C@@H](Cc1ccc(O)cc1)C(=O)O; X1 = CCCCCCC[C@H](N[*:1])C(=O)[*:2]; NMeF = CN[C@@H](Cc1ccccc1)C(=O)O; NMeDab = CN[C@@H](CCN)C(=O)O; NMeDap = CN[C@@H](CN)C(=O)O; NMeA = CN[C@@H](C)C(=O)O; dNMeA = CN[C@H](C)C(=O)O

Legend:
[1] = target: T1, Myostatin (Homo sapiens, UniProt O14793); experiment: Reporter gene assay for myostatin signaling in HepG2 cell line, Evaluation Procedure (1), myostatin inhibition; assay type: cell-based
T1 construct: active myostatin (also called mature myostatin) is a homodimer consisting of two C-terminal growth factor domains; purchased R&D systems 788-G8/CF
T1 sequence (O14793 267-375): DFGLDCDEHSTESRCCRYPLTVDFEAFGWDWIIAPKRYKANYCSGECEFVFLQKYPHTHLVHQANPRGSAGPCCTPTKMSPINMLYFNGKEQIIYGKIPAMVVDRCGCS
Description: (§1) In this Example, the in vitro myostatin inhibitory effects of the peptides synthesized in Examples 1 and 2 were evaluated using a reporter gene assay for myostatin signaling in HepG2 cell line.
(§2) HepG2 cell line (HB-8065, ATCC) cultured in EMEM (055-08975, WAKO Industries) containing 10% FBS (10270106, Gibco) and 50 µg/mL gentamicin (11980-14, Nacalai Tesque) was seeded in 96-well plates (167008, Thermo) at 2.0 × 10^4 cells/well and incubated in a CO2 incubator (37°C, 5% CO2) for 24 hours. The pGL3(CAGA)12-luc plasmid, namely a pGL3 vector (E1751, Promega) having a luciferase gene inserted downstream of a promoter sequence with 12 CAGA repeats attached, was added to the wells along with a transfection reagent (X-treamGENE9 DNA Transfection Reagent, 6365809001, Roche) at a concentration of 0.04 µg/well. The cell line was cultured in a CO2 incubator (37°C, 5% CO2) for 24 hours for transfection. The medium was discarded and replaced with EMEM containing 50 µL/well of 0.1% bovine serum albumin (A7030, Sigma) and 50 µg/mL gentamicin, and incubated in a CO2 incubator (37°C, 5% CO2) for 2 hours.
(§3) Myostatin (788-G8/C, R&D systems) or GDF-11 (1958-GD-G8/CF, R&D systems) was added so that the final concentrations were those listed in Table 5.
(§4) A 4-fold dilution series of various peptides synthesized in Examples 1 and 2 was added to achieve 0.006-100 nmol/L (myostatin inhibition) and 0.12-2000 nmol/L (GDF-11 inhibition). At this time, blank wells, in which neither myostatin, GDF-11, nor each peptide was added, were also prepared and incubated in a CO2 incubator (37°C, 5% CO2) for 20 to 24 hours.
(§5) The medium containing the cells was removed, and a mixture containing PBS (14190144, Thermo) and a chromogenic substrate One-Glo Luciferase Assay System (E6120, Promega) at a ratio of 1:1 was added to each well at 100 µL/well. This was stirred with a plate shaker for 5 min and transferred to a 384-well plate (3570, Corning) at a volume of 20 µL/well.
(§6) The plate was centrifuged at 1,000 × g for 1 min and the luminescence signal (700 nm luminescence) was measured using a plate reader (Envision 2104, PerkinElmer). Based on the measured values, IC50 values of the peptides were calculated using software (Prism 9, GraphPad). […]
(§7) In this Example, the in vitro myostatin inhibitory effects of the peptides synthesized in Examples 10 and 11 were evaluated according to the Evaluation Procedure (1) in Example 3.

[2] = target: T2, GDF-11 (Homo sapiens, UniProt O95390); experiment: Reporter gene assay for myostatin signaling in HepG2 cell line, Evaluation Procedure (1), GDF-11 inhibition; assay type: cell-based
T2 construct: purchased R&D systems 1958-GD-G8/CF
T2 sequence (O95390 299-407): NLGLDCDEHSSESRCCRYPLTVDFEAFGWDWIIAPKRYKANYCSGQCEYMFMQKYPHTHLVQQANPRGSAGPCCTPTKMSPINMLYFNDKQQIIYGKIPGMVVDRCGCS
Description: as §1, §2, §3, §4, §5, §6, §7

[3] = Method D: Myostatin 1.5 ng/mL, read-out: IC50 (Luciferase) Myostatin HepG2
[4] = Method D: GDF-11 1.5 ng/mL, read-out: IC50 (Luciferase) GDF-11 HepG2
[5] = HepG2, luciferase reporter, Evaluation Procedure (1), Method D
[6] = HepG2, luciferase reporter, Evaluation Procedure (1), Method D, read-out: IC50 (Luciferase) GDP-11 HepG2

| SMILES | pIC50 [1, 3] | pIC50 [2, 4] | pIC50 [1, 5] | pIC50 [2, 6] | also measured |
| --- | --- | --- | --- | --- | --- |
| CC[C@H](C)[C@@H]1NC(=O)[C@H](Cc2ccc(O)cc2)N(C)C(=O)[C@H](Cc2ccc(O)cc2)NC(=O)[C@H](Cc2ccc(-c3ccccc3)cc2)NC(=O)[C@H](C)NC(=O)CN(CCCC(=O)O)C(=O)CSC[C@H](C(=O)O)NC(=O)[C@H](Cc2ccccc2)N(C)C(=O)[C@H](C)N(C)C(=O)[C@H](CC(C)C)NC(=O)[C@H](Cc2ccccc2)N(C)C(=O)[C@H](CCCNC(=N)N)NC(=O)[C@H](Cc2ccc(C(=O)O)cc2)NC(=O)[C@H](Cc2cccc(OCC(=O)O)c2)NC(=O)[C@@H](C)N(C)C1=O [Myostatin_99_v118] ({CH2CO}-[Gly(N(CH2)3COOH)]A[Bip]Y[NMeY]I[dNMeA][Phe(3-OCH2COOH)][Phe(4-COOH)]R[NMeF]L[NMeA][NMeF][dC]-OH; thioether N-15) | – | – | – | – | pIC50 ([1]; Method A: Myostatin 10 ng/mL, read-out: IC50 (Luciferase) Myostatin HepG2): 7.64; pIC50 ([2]; Method A: GDF-11 10 ng/mL, read-out: IC50 (Luciferase) GDF-11 HepG2): 5.39 |
| CCCCCCC[C@@H]1NC(=O)[C@@H]2Cc3ccc(cc3)CNC(=O)CC[C@H](NC(=O)CSC[C@H](C(=O)O)NC(=O)[C@H](Cc3ccccc3)N(C)C(=O)[C@H](C)N(C)C1=O)C(=O)N[C@@H](C)C(=O)N[C@@H](Cc1c[nH]c3ccccc13)C(=O)N[C@@H](Cc1ccc(O)cc1)C(=O)N(C)[C@@H](Cc1ccccc1)C(=O)N[C@@H]([C@@H](C)CC)C(=O)N(C)[C@@H](C)C(=O)N[C@@H](Cc1cccc(OCC(=O)O)c1)C(=O)N[C@@H](Cc1ccc(C(=O)O)cc1)C(=O)N[C@@H](CCCNC(=N)N)C(=O)N2C [Myostatin_99_v358] ({CH2CO}-EAWY[NMeF]I[NMeA][Phe(3-OCH2COOH)][Phe(4-COOH)]R[NMePhe(4-CH2NH2)][X1][NMeA][NMeF][dC]-OH; lactam 1-11; thioether N-15) | 9.77 | 7.28 | – | – | – |
| CCCCCCC[C@@H]1NC(=O)[C@H](Cc2ccccc2)N(C)C(=O)[C@H](CCCNC(=N)N)NC(=O)[C@H](Cc2ccc(C(=O)O)cc2)NC(=O)[C@H](Cc2cccc(OCC(=O)O)c2)NC(=O)[C@H](C)N(C)C(=O)[C@H]([C@@H](C)CC)NC(=O)[C@H](Cc2ccccc2)N(C)C(=O)[C@H](Cc2ccc(O)cc2)NC(=O)[C@H](Cc2c[nH]c3ccccc23)NC(=O)[C@H](C)NC(=O)[C@@H]2CC(=O)NCC[C@@H](C(=O)N(C)[C@@H](Cc3ccccc3)C(=O)N[C@@H](C(=O)O)CSCC(=O)N2)N(C)C1=O [Myostatin_99_v367] ({CH2CO}-DAWY[NMeF]I[NMeA][Phe(3-OCH2COOH)][Phe(4-COOH)]R[NMeF][X1][NMeDab][NMeF][dC]-OH; lactam 1-13; thioether N-15) | 9.82 | 6.93 | – | – | – |

Second part, led by results:

| pIC50 [1, 3] | pIC50 [2, 4] | pIC50 [1, 5] | pIC50 [2, 6] | SMILES | also measured |
| --- | --- | --- | --- | --- | --- |
| 10.40 | 7.82 | – | – | CCCCCCC[C@@H]1NC(=O)[C@@H]2Cc3ccc(cc3)CNC(=O)CC[C@H](NC(=O)CSC[C@H](C(=O)O)NC(=O)[C@H](Cc3ccccc3)N(C)C(=O)[C@H](C)N(C)C1=O)C(=O)N[C@@H](C)C(=O)N[C@@H](Cc1cn(-c3ccc(C(=O)O)cc3)c3cc(O)ccc13)C(=O)N[C@@H](Cc1ccc(O)cc1)C(=O)N(C)[C@@H](Cc1ccccc1)C(=O)N[C@@H]([C@@H](C)CC)C(=O)N1CCC[C@@H]1C(=O)N[C@@H](Cc1cccc(OCC(=O)O)c1)C(=O)N[C@@H](Cc1ccc(C(=O)O)cc1)C(=O)N[C@@H](CCCNC(=N)N)C(=O)N2C [Myostatin_99_v424] ({CH2CO}-EA[Trp(6-OH,1-(4-HO2C-Ph))]Y[NMeF]I[dP][Phe(3-OCH2COOH)][Phe(4-COOH)]R[NMePhe(4-CH2NH2)][X1][NMeA][NMeF][dC]-OH; lactam 1-11; thioether N-15) | – |
| – | – | 10.40 | 7.59 | CCCCCCC[C@@H]1NC(=O)[C@H](Cc2ccccc2)N(C)C(=O)[C@H](CCCNC(=N)N)NC(=O)[C@H](Cc2ccc(C(=O)O)cc2)NC(=O)[C@H](Cc2cccc(OCC(=O)O)c2)NC(=O)[C@H]2CCCN2C(=O)[C@H]([C@@H](C)CC)NC(=O)[C@H](Cc2ccccc2)N(C)C(=O)[C@H](Cc2ccc(O)cc2)NC(=O)[C@H](Cc2cn(-c3ccc(C(=O)O)cc3)c3cc(O)ccc23)NC(=O)[C@H](C)NC(=O)CN2CCC(=O)NC[C@@H](C(=O)N(C)[C@@H](Cc3ccccc3)C(=O)N[C@@H](C(=O)N3CCC(CCC(N)=O)CC3)CSCC2=O)N(C)C1=O [Myostatin_99_v478] ({CH2CO}-[N(CH2CH2CO)Gly]A[Trp(6-OH,1-(4-HO2C-Ph))]Y[NMeF]I[dP][Phe(3-OCH2COOH)][Phe(4-COOH)]R[NMeF][X1][NMeDap][NMeF][dC]-{Piperidine(4-CH2CH2CONH2)}; lactam 1-13; thioether N-15) | – |
| – | – | 9.96 | 7.04 | CCCCCCC[C@@H]1NC(=O)[C@H](Cc2ccccc2)N(C)C(=O)[C@H](CCCNC(=N)N)NC(=O)[C@H](Cc2ccc(C(=O)O)cc2)NC(=O)[C@H](Cc2cccc(OCC(=O)O)c2)NC(=O)[C@H]2CCCN2C(=O)[C@H]([C@@H](C)CC)NC(=O)[C@H](Cc2ccccc2)N(C)C(=O)[C@H](Cc2ccc(O)cc2)NC(=O)[C@H](Cc2cn(-c3ccc(C(=O)O)cc3)c3cc(O)ccc23)NC(=O)[C@H](C)NC(=O)CN(CCCC(=O)O)C(=O)[C@H](C)N(C)C(=O)[C@@H](C)NC(=O)[C@H](Cc2ccccc2)N(C)C(=O)[C@H](C)N(C)C1=O [Myostatin_99_v482] (cyclo(A[Trp(6-OH,1-(4-HO2C-Ph))]Y[NMeF]I[dP][Phe(3-OCH2COOH)][Phe(4-COOH)]R[NMeF][X1][NMeA][NMeF][dA][NMeA][Gly(N(CH2)3COOH)])) | – |
| – | – | 9.85 | 7.22 | CCCCCCC[C@@H]1NC(=O)[C@H](Cc2ccccc2)N(C)C(=O)[C@H](CCCNC(=N)N)NC(=O)[C@H](Cc2ccc(C(=O)O)cc2)NC(=O)[C@H](Cc2cccc(OCC(=O)O)c2)NC(=O)[C@H]2CCCN2C(=O)[C@H]([C@@H](C)CC)NC(=O)[C@H](Cc2ccccc2)N(C)C(=O)[C@H](Cc2ccc(O)cc2)NC(=O)[C@H](Cc2cn(-c3ccc(C(=O)O)cc3)c3cc(O)ccc23)NC(=O)[C@H](C)NC(=O)[C@H](C)NC(=O)[C@H](C)N(C)C(=O)[C@@H](C)NC(=O)[C@H](Cc2ccccc2)N(C)C(=O)[C@H](C)N(C)C1=O [Myostatin_99_v483] (cyclo(AA[Trp(6-OH,1-(4-HO2C-Ph))]Y[NMeF]I[dP][Phe(3-OCH2COOH)][Phe(4-COOH)]R[NMeF][X1][NMeA][NMeF][dA][NMeA])) | – |
| – | – | 9.74 | 7.27 | CCCCCCC[C@@H]1NC(=O)[C@H](Cc2ccccc2)N(C)C(=O)[C@H](CCCNC(=N)N)NC(=O)[C@H](Cc2ccc(C(=O)O)cc2)NC(=O)[C@H](Cc2cccc(OCC(=O)O)c2)NC(=O)[C@H]2CCCN2C(=O)[C@H]([C@@H](C)CC)NC(=O)[C@H](Cc2ccccc2)N(C)C(=O)[C@H](Cc2ccc(O)cc2)NC(=O)[C@H](Cc2cn(-c3ccc(C(=O)O)cc3)c3cc(O)ccc23)NC(=O)[C@H](C)NC(=O)CN(CCCC(=O)O)C(=O)CSC[C@H](C(=O)N2CCC(CCC(N)=O)CC2)NC(=O)[C@H](Cc2ccccc2)N(C)C(=O)[C@H](C)N(C)C1=O [Myostatin_99_v488] ({CH2CO}-[Gly(N(CH2)3COOH)]A[Trp(6-OH,1-(4-HO2C-Ph))]Y[NMeF]I[dP][Phe(3-OCH2COOH)][Phe(4-COOH)]R[NMeF][X1][NMeA][NMeF][dC]-{Piperidine(4-CH2CH2CONH2)}; thioether N-15) | – |
